Measurements reported in PubChem BioAssay (NCI).
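Method: 48-hour compound exposure of cells in 96-well plates, five concentrations, linear interpolation of endpoints. GI50 = concentration required for 50% inhibition of growth. TGI is the concentration that stops growth completely.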

What was measured:
Assay in all cases: NCI-60 cell line screen, 48 h
NCI-H226 lung = test system: NCI-H226 lung
NCI/ADR-RES ovarian = test system: NCI/ADR-RES ovarian
BT-549 breast = test system: BT-549 breast
UO-31 renal = test system: UO-31 renal
SK-MEL-28 melanoma = test system: SK-MEL-28 melanoma
MALME-3M melanoma = test system: MALME-3M melanoma
SR leukemia = test system: SR leukemia
MDA-MB-435 = test system: MDA-MB-435
NCI-H460 lung = test system: NCI-H460 lung
HOP-92 NSCLC = test system: HOP-92 NSCLC

SMILES | GI50 (NCI-H226 lung) [µM] | TGI (NCI-H226 lung) [µM] | GI50 (NCI/ADR-RES ovarian) [µM] | TGI (NCI/ADR-RES ovarian) [µM] | GI50 (BT-549 breast) [µM] | TGI (BT-549 breast) [µM] | GI50 (UO-31 renal) [µM] | TGI (UO-31 renal) [µM] | GI50 (SK-MEL-28 melanoma) [µM] | TGI (SK-MEL-28 melanoma) [µM] | GI50 (MALME-3M melanoma) [µM] | TGI (MALME-3M melanoma) [µM] | GI50 (SR leukemia) [µM] | TGI (SR leukemia) [µM] | GI50 (MDA-MB-435) [µM] | TGI (MDA-MB-435) [µM] | GI50 (NCI-H460 lung) [µM] | TGI (NCI-H460 lung) [µM] | GI50 (HOP-92 NSCLC) [µM] | TGI (HOP-92 NSCLC) [µM]
Cc1[nH]c(-c2cc(N)ccc2Cl)c2c1C(=O)CCCC2 | 3.37 | > 100 | 4.78 | > 100 | 5.89 | > 100 | 0.477 | 15.1 | 6.5 | > 100 | 2.12 | 9.94 | 2.64 | > 100 | 3.24 | 19.5 | 10.3 | > 100 | 1.93 | 63.8
O=C(O)c1ccccc1NC(=S)c1ccccc1 |  |  |  | > 100 |  | > 100 |  | > 100 |  |  |  | 65.9 |  |  |  | > 100 |  | > 100 |  | 44.1
CCN1C(=O)N(CC)C2C1NN=c1s/c(=C\c3ccc(F)cc3)c(=O)n12 (centres undefined) | 20.3 | > 100 | 0.168 | > 100 | 0.759 | > 26.1 | 0.601 | > 100 | 0.599 | > 100 | 28.9 | > 100 | 0.0474 | > 37.3 | 0.0317 | 0.121 | 0.218 | > 100 | 7.43 | > 100
CC1C=CC(OC(=O)C(C)(O)CCC(O)(C(=O)OC2CC(O)C(C(C)C)CC2(C)O)C(C)C)(C(C)C)CC1 (centres undefined) | 0.716 | 2.48 | 0.725 | 2.22 | 0.561 | 1.22 | 0.329 | 1.02 | 2.1 | 8.27 | 0.709 | 1.45 | 0.263 | 46.3 | 0.521 | 1.13 | 0.799 | 1.59 | 0.403 | 1.86
COC(=O)c1cc(-c2ccc(OC)c(OC)c2)[nH]c1N/N=C/c1c(Cl)cccc1Cl | 1.9 | > 51.3 | 0.557 | 9.01 | 0.887 | 3.48 | 0.834 | 3.25 | 0.97 | 71.2 | 0.86 | 31.8 | 0.394 | > 100 | 0.127 | 0.562 | 0.379 | 1.85 | 0.944 | 5.06
COc1cc(C(=O)Nc2cc(O)c(CC=C(C)C)c(O)c2)cc2c1O[C@]1(C)CC[C@@H](O)C(C)(C)[C@H]1C2 | 3.04 | 61.3 | 29.8 | > 100 | 0.153 | 12.8 | 0.506 | 4.13 | 2.03 | 22.8 | 2.85 | 20 | 0.0624 | > 100 | 0.703 | 41.4 | 0.547 | 19.1 |  | 
C=CCc1cc(Nc2c3ccc(Cl)cc3nc3ccc(OC)cc23)cc(CN(CC)CC)c1O | 1.15 | 10.8 | 2.88 | 10.8 | 1.38 | 8.1 | 2.02 | 11 | 3.37 | 18.1 | 1.87 | 6.78 | 0.362 | 3.47 | 2.3 | 11.8 | 0.525 | 2.69 | 1.11 | 4.04
Oc1cccc2c1NCCC2 | 3.07 | 35.2 | 1.25 | 30.4 | 0.541 | > 100 | 0.075 | 13.5 | 2.19 | > 100 | 0.135 | 98.9 |  |  | 0.122 | > 100 | 0.103 | 4.66 | 0.0231 | 0.066
N/C(=N\OC(=O)c1ccccc1)C(Cc1ccccc1)C(=O)NOC(=O)c1ccccc1 (centres undefined) | 3.51 | 14 | 2.72 | 11.3 | 4.26 | 16.5 | 1.45 | 3.07 | 7.76 | 22.6 | 3.47 | 14.8 | 1.08 | 3.68 | 1.76 | 3.9 | 1.76 | 3.71 | 1.84 | 3.63
C/C(=N\O)c1cccc(Nc2cc(-n3ccnc3)c3ccccc3n2)c1 | 3.59 | 20.9 | 17.2 | 59.2 | 17 | 35.1 | 13.8 | 34.6 | 14.3 | 29.8 | 11.1 | 25.3 |  |  | 10.9 | 24.4 | > 100 | > 100 | 30.2 | 92.1
Cn1ccnc1Oc1ccc(Cl)cc1 |  | 44.3 |  | 49 |  | 65.7 |  | 23.9 |  | 27.4 |  | 10.2 |  |  |  | 25.1 |  | > 100 |  | 24.4
CC(CO)(Nc1ccc([N+](=O)[O-])cc1[N+](=O)[O-])C(=O)O (centres undefined) |  | > 100 |  | > 100 |  | 67.2 |  | 37.4 |  | 43.5 |  | 36.1 |  | 24.8 |  | 44.9 |  | 28.8 |  | 
O=C(CN1N=C(c2ccc(F)cc2)CCC1=O)Nc1nc2ccccc2s1 | 69.7 | > 100 | > 28.2 | > 100 | 4.81 |  | 0.182 | 0.405 | > 100 | > 100 | 0.621 | 1.56 |  |  | > 73.5 | > 100 | > 51.5 | > 100 | 1.31 | 2.84
CCC(=O)Nc1ccc(N2C(=O)/C(=C/c3ccc(OC)cc3)N=C2c2ccccc2)cc1 | 8.93 | 33.7 | 9.77 | > 50 | 10.9 | 36.4 | 30 | > 50 | 14.6 | > 50 |  |  | 1.4 | > 50 | 20.5 | > 50 | 2.1 | > 50 | 0.0351 | 21.1
C[n+]1c2ccccc2nc2c(N)cc(N)cc21 | 8.41 | > 100 | 83.3 | > 100 | 2.62 | 12.5 | 26.2 | > 100 | 10.3 | 24.1 | 2.39 | 9.77 |  |  | 15.9 | 41.5 | 16.8 | 59 | 35.4 | > 100
Fc1cccc(F)c1C(Nc1nncs1)Nc1nncs1 |  | > 100 |  | > 100 |  | > 100 |  | > 100 |  | > 100 |  | > 100 |  |  |  | > 100 |  | > 100 |  | > 100
CCOC(=O)c1cc2c(cc1Cl)SC(=Nc1ccccc1)N(S(=O)(=O)c1ccc(Br)s1)S2(=O)=O | 16.2 | 35 | 17.5 | 37.6 | 17.3 | 34.8 | 22.1 | 53.9 | 24.1 | 64.5 |  |  |  |  | 13.4 | 28.3 | 19.4 | 51.1 | 10.9 | 33.6
CSc1ccc(C2=NN(C(C)=O)C(c3ccc(-c4ccc(Cl)cc4)o3)C2)cc1 (centres undefined) | 44.4 | > 100 | 41.4 | > 100 | 76.4 | > 100 | 28.5 | > 100 | 86.2 | > 100 | 43.2 | > 100 |  |  | 29.2 | > 100 | 40 | > 100 | 22.7 | 80.1
CC(=O)O[C@@H]1C[C@@]2(C)[C@@H]3CC=C4[C@@H](C[C@H](O)C(=O)C4(C)C)[C@]3(C)C(=O)C[C@]2(C)[C@H]1[C@@](C)(O)C(=O)/C=C/C(C)(C)OC(C)=O |  | 3.31 |  | 43.8 |  | 0.713 |  | 0.881 |  | 29.4 |  |  |  | > 53.4 |  | 37.9 |  | 16.3 |  | 6.98
COc1cc2ncc3c(nc4sccn43)c2cc1OC |  |  | 93.3 | > 100 | 37.1 | > 100 | 33.6 | > 100 | 28.9 | 95 | 5.86 | 32.6 | 12.4 | 41.7 | 27.2 | > 100 | 13.6 | > 100 | 15.8 | 39
C[CH2][Hg][S]c1ccccc1C(=O)O |  |  | 1.94 | 4.79 | 1.43 | 2.76 | 1.43 | 2.79 | 1.71 | 3.69 | 0.801 | 2.25 | 0.444 | 3.75 | 1.4 | 2.95 | 2.64 | 8.98 |  | 
CN=C1OC2(c3ccccc3)C3=C(OC(=NC)N2C)C(=O)OC3(c2ccccc2)N1C (centres undefined) |  | > 100 |  | > 100 |  | > 100 |  |  |  | > 100 |  |  |  | > 100 |  |  |  | > 100 |  | 
